This is an account of results in US12617769B2, “Chemical compound as thyroid hormone beta receptor agonist and use thereof” (SUNSHINE LAKE PHARMA CO., LTD., priority 2019, dated 2026).

A value given as a limit tells only on which side of the number the result lay.

A short description of series [1]: Pharmacokinetic determination in SD rats (plasma, LC/MS/MS). It counts as in vivo. Particulars: SD rat; for pharmacokinetic properties (in words): intravenous injection or oral gavage, compared to control MGL3196; for AUC(0-t) / Cmax / Tmax / half-life: male, plasma. An excerpt: Test purpose: The following method is used to determine the pharmacokinetics of the compounds of the present invention.
Experimental reagents and test compounds: Propranolol (internal standard), methanol, ammonium acetate, K2EDTA (potassium ethylenediamine tetraacetate), formic acid, acetonitrile, MTBE (methyl tert-butyl ether), KolliphorHS15 (polyethylene glycol 12 hydroxystearate), DMSO (dimethyl sulfoxide) are commercially available; • SD rat: male, 180-220 g, 7-8 weeks old, purchased from Hunan Slake Experimental Animal Co., Ltd. Test Method: 1. Preparation of Test Compounds
Each test compound prepared was completely dissolved in a mixture of 5% DMSO+5% KolliphorHS 15+90% Saline according solubility property thereof.
(1) Preparation of the test compound stock solution: an appropriate amount of test compound was precisely weighed, dissolved in DMSO, diluted to 1 mg/mL with acetonitrile, and shaken well to obtain the test compound stock solution, which was stored at −20° C. for use.
(2) Preparation of internal standard solution: a certain amount of 1 mg/mL Propranolol stock solution was precisely drawn and diluted to 100 ng/mL with water.
The liquid-liquid extraction method was used to process the samples for chromatographic separation. On a triple quadrupole tandem mass spectrometer, quantitative analysis was performed using multiple reactive ion monitoring (MRM), and the concentration were calculated using instrument quantitative software.
30 μL of plasma sample was accurately drawn, and added with 250 μL of internal standard. The mixture was mixed well by vortexing. The mixture was extracted once with 1 mL of MTBE, centrifuged at 13,000 rpm, 4° C. for 2 min, then 800 μL of supernatant was sucked, and evaporated in a 96-well nitrogen blower. The residue was re-dissolved with 150 μL of methanol/water (v/v=50/50), mixed by vortexing, and injected. The injection volume was 8 μL.
An appropriate amount of compound stock solution was accurately drawn, and diluted with acetonitrile to obtain standard series solution. 20 μL of each of the above standard series solutions was accurately drawn, added with 180 μL of blank plasma, and mixed well by vortexing to prepare plasma samples equivalent to plasma concentrations of 3, 5, 10, 30, 100, 300, 1,000, 3,000, 5,000, and 10,000 ng/mL, which were all processed according to “pretreatment of plasma samples”. Two samples were analyzed for each concentration to establish a standard curve.
The content of the test compound in the plasma of rats after administration of different compounds was determined by LC/MS/MS method.
Pharmacokinetic parameters were calculated using a noncompartmental method by WinNonLin 6.1 software.

In series [2] the target is T1, TRα (Homo sapiens, UniProt P10827).
T1 construct: Then 5 μL of 4×TRα-LBD or TRP-LBD; purchased Invitrogen PV4687
T1 sequence (P10827 163-410 isoform P10827-2 limits assumed, other chains not shown): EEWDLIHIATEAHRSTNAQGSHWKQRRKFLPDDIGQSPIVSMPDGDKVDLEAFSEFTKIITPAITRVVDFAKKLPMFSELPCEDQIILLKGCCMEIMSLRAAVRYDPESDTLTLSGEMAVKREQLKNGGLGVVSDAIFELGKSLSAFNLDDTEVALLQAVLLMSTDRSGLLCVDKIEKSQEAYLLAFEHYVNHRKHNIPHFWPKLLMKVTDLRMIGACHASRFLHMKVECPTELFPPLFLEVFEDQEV
As to the kind of experiment: In vitro binding activity, LanthaScreen TR-FRET Thyroid Receptor alfa Coactivator Assay. Particulars: TRα-LBD. The protocol: (§1) 2. Detection of TRα or TRβ Binding Activity In Vitro of the Compound of the Present Invention
(§2) • LanthaScreen TR-FRET Thyroid Receptor beta Coactivator Assay kit was purchased from Invitrogen, Cat. No. PV4686; • LanthaScreen TR-FRET Thyroid Receptor alfa Coactivator Assay kit was purchased from Invitrogen, Cat. No. PV4687. Test Method:
(§3) This method was tested using LanthaScreen TR-FRET Thyroid Receptor beta/alfa Coactivator Assay kit. The test compound was dissolved in DMSO and diluted three-fold to obtain a total of 10 concentrations, then the compounds were diluted into solutions containing 2% DMSO with TR-FRET Coregulator Buffer C in the kit. 10 μL of the compounds containing 2% DMSO were taken to a 384-well plate. Then 5 μL of 4×TRα-LBD or TRP-LBD and 5 μL of a mixture containing 0.4 μM fluorescein-SRC2-2 and 8 nM Tb anti-GST antibody were added to each well. After mixing well, the compounds were incubated at room temperature in the dark for 1 h. After 1 h, the fluorescence value (RFU) was read at 520 nm and 495 nm using PHERAstar FSX microplate reader from BMG LABTECH. The emission signal at 520 nm was divided by the emission signal at 495 nm to calculate the TR-FRET ratio.
On the technique in general: In TR-FRET formats the signal depends on donor and acceptor labels being close together.

Series [3] concerns the target T2, TRβ (Homo sapiens, UniProt P10828).
T2 construct: Then 5 μL of 4×TRα-LBD or TRP-LBD; purchased Invitrogen PV4686
T2 sequence (P10828 217-461 limits assumed): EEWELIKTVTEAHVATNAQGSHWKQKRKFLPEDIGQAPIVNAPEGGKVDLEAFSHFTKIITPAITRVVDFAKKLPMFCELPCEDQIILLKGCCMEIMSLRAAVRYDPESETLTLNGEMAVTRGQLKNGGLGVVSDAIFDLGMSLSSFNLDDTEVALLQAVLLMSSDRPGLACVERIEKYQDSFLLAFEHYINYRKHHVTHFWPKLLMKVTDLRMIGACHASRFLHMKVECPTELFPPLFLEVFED
Kind of series: In vitro binding activity, LanthaScreen TR-FRET Thyroid Receptor beta Coactivator Assay. Particulars: TRβ-LBD. As to the method:
as §1, §2, §3

Consider `COC(=O)c1nn(-c2cc(Cl)c(Oc3ccc(=O)n(Cc4ccccc4)c3)c(Cl)c2)c(=O)[nH]c1=O` [Example 16, Methyl 2-(4-((1-benzyl-6-oxo-1,6-dihydropyridin-3-yl)oxy)-3,5-dichlorophenyl)-3,5-dioxo-2,3,4,5-tetrahydro-1,2,4-triazine-6-carboxylate], for which, in series [1], the “pharmacokinetic properties (in words)” value is “excellent pharmacokinetic properties”. In series [1] (po, ig, 5 mg/kg), the exposure AUC(0-t) (commonly the area under the concentration-time curve up to a stated or last time point) was 33600 ng·h/mL; the Cmax (in general, the peak of the concentration-time curve) was determined as 12700 ng/mL; the Tmax (in general, the time at which the peak concentration occurs) turned out to be 0.5 h; the half-life (usually the time needed for the level to fall by half in the phase considered) was 3.05 h. In series [1] (iv, 1 mg/kg), the AUC(0-t) stood at 17400 ng·h/mL, the concentration peaked (Cmax) at 17300 ng/mL, the time of peak concentration (Tmax) stood at 0.083 h and the half-life is 4 h. For the same compound, in series [2], the response was half-maximal at 16300 nM (EC50). Besides, the EC50 (commonly the concentration needed to bring the measured effect to its halfway point) in series [3] is 360 nM.

As for `O=c1cnn(-c2cc(Cl)c(Oc3ccc(=O)n(Cc4ccccc4)c3)c(Cl)c2)c(=O)[nH]1` [Example 29, 2-(4-((1-benzyl-6-oxo-1,6-dihydropyridin-3-yl)oxy)-3,5-dichlorophenyl)-1,2,4-triazine-3,5-dione], in series [1], the “pharmacokinetic properties (in words)” value was “excellent pharmacokinetic properties”. Also, in series [1] (po, ig, 5 mg/kg), the AUC(0-t) amounted to 115000 ng·h/mL, the highest level (Cmax) was 20000 ng/mL, the Tmax was found to be 0.417 h and the half-life was 2.89 h. Further, in series [1] (iv, 1 mg/kg), the AUC(0-t) is 16900 ng·h/mL, the highest level (Cmax) was 8920 ng/mL, the time of peak concentration (Tmax) is 0.083 h and the half-life is 2.38 h. This compound also registered a 50% effective concentration (EC50) in series [2] of 370 nM. This compound also had an EC50 in series [3] of 11 nM.

Consider `Cc1cc(-n2nc(C#N)c(=O)[nH]c2=O)cc(C)c1Oc1ccc(=O)n(Cc2ccccc2)c1` [Example 34, 2-(4-((1-benzyl-6-oxo-1,6-dihydropyridin-3-yl)oxy)-3,5-dimethylphenyl)-3,5-dioxo-2,3,4,5-tetrahydro-1,2,4-triazine-6-carbonitrile], for which the results for the EC50 in series [2] and in series [3] were 7310 nM and 367 nM, respectively.

With `N#Cc1nn(-c2cc(Br)c(Oc3ccc(=O)n(Cc4ccccc4)c3)c(Br)c2)c(=O)[nH]c1=O` [Example 35, 2-(4-((1-benzyl-6-oxo-1,6-dihydropyridin-3-yl)oxy)-3,5-dibromophenyl)-3,5-dioxo-2,3,4,5-tetrahydro-1,2,4-triazine-6-carbonitrile], the concentration giving a half-maximal response (EC50) in series [2] is 473 nM; in series [3] it was 17 nM.

On to `O=c1cnn(-c2cc(Cl)c(Oc3ccc(=O)n(Cc4ccc(F)cc4)c3)c(Cl)c2)c(=O)[nH]1` [Example 36, 2-(3,5-dichloro-4-((1-(4-fluorobenzyl)-6-oxo-1,6-dihydropyridin-3-yl)oxy)phenyl)-1,2,4-triazine-3,5(2H,4H)-dione], for which the EC50 in series [2] is 92 nM; in series [3], < 4.6 nM.

Take `Cc1cc(Oc2c(Cl)cc(-n3nc(C#N)c(=O)[nH]c3=O)cc2Cl)cn(Cc2ccccc2)c1=O` [Example 37, 2-(4-((1-benzyl-5-methyl-6-oxo-1,6-dihydropyridin-3-yl)oxy)-3,5-dichlorophenyl)-3,5-dioxo-2,3,4,5-tetrahydro-1,2,4-triazine-6-carbonitrile]: the concentration giving a half-maximal response (EC50) in series [2] was > 100000 nM; in series [3], 245 nM.

For `N#Cc1nn(-c2cc(Cl)c(Oc3cc(Cl)c(=O)n(Cc4ccccc4)c3)c(Cl)c2)c(=O)[nH]c1=O` [Example 38, 2-(4-((1-benzyl-5-chloro-6-oxo-1,6-dihydropyridin-3-yl)oxy)-3,5-dichlorophenyl)-3,5-dioxo-2,3,4,5-tetrahydro-1,2,4-triazine-6-carbonitrile], the EC50 in series [2] was > 33300 nM; in series [3], 382 nM.

Turning to `CC(C)c1cc(Oc2c(Cl)cc(-n3nc(C#N)c(=O)[nH]c3=O)cc2Cl)n[nH]c1=O` [MGL3196, reference compound], in series [1] (po, ig, 5 mg/kg), the area under the curve AUC(0-t) came out at 20700 ng·h/mL, the highest level (Cmax) was 2610 ng/mL, the Tmax worked out at 2 h and the half-life was 4.26 h. Also, in series [1] (iv, 1 mg/kg), the AUC(0-t) was determined as 8840 ng·h/mL, the highest level (Cmax) was 5990 ng/mL, the time of peak concentration (Tmax) was found to be 0.083 h and the half-life was 2.74 h.
